# Laboratory results from US12377067B2, “Methods of treating PAH with combinations of ralinepag and other agents” (Arena Pharmaceuticals, Inc., priority 2016, dated 2025).
# System: human PASMCs from PAH patients
# Test: Cell proliferation assay (MTS), serum-induced growth
# Type: cell-based
# Description: Primary cell lines of distal PASMCs from PAH patients were derived from explanted lungs as previously described (Falcetti et al., 2010; Bubb et al., 2014). These cells have an abnormal proliferative capacity when grown in culture (Zhang et al., 2007; Falcetti et al., 2010). Frozen cells were revived and grown in human smooth muscle basal medium-2 (SMBM; Lonza, Slough, UK) supplemented with 9% fetal bovine serum (FBS) at 37° C. in a humidified atmosphere of 5% CO2. After reaching confluence, cells were washed with phosphate-buffered saline (PBS) and treated with trypsin-EDTA for further passage. Only cells between passages 3 and 10 were used for experiments.
# Comparative concentration-dependent effects of IP receptor agonists on cell proliferation were assessed on human PASMCs derived from PAH patients. Cells were seeded onto 96-well plates at a density of 1×10^4 cells/ml and grown at 37° C. in a humidified CO2 incubator in human smooth muscle basal medium-2 (SMBM; Lonza) containing 9% FBS and penicillin-streptomycin (Pen/Strep; 50 units/ml). After 24 hours, cells were growth arrested by incubating for 48 hours in fresh media containing no added serum. Media was then subsequently removed, replaced with human SMBM containing 9% serum with or without 0.1% DMSO in the absence and presence of the IP receptor agonist (either ralinepag, iloprost, treprostinil or MRE-269) and cells treated with the IP receptor agonist for 4 days over the concentration range ([…]). Responses were directly compared in cells containing the IP receptor antagonist, RO-1138452 (1 μM), which was added to cells 30-60 minutes prior to the addition of the IP agonist and remained throughout the experiment. Cells incubated with no added serum over the same time period (4 days) acted as the time control.
# Cell proliferation was obtained using an MTS proliferation kit (Promega), a colorimetric method for determining the number of viable cells which is based on the cleavage of the tetrazolium salt MTS to formazan by cellular mitochondrial dehydrogenases. An increase in cell number leads to a proportional increase in the amount of formazan dye formed which is quantified by measuring the absorbance of the dye solution at 490 nm. In each case background absorbance was corrected by subtracting the average absorbance from the “no cell” control wells from all other absorbance values.
# Cell proliferation was then normalized to the growth response induced by FBS alone, which was taken as the FBS response minus the time control (=100% growth at 4 days). Growth responses induced in presence of solvent±drugs is shown as % change in cell proliferation relative to the FBS response alone in all figures.
# All data are presented as mean±standard error of mean (S.E.M) of at least 5 observations. Agonist log-concentration curves were constructed and fitted using the non-linear fitting routine in GraphPad Prism 4 or 6 (San Diego, Calif., USA). The concentration of agonist causing 50% of the maximal response (Emax) was expressed as the negative log (pEC50) and the mean EC50 calculated. P values <0.05 are considered statistically significant.
smiles,measurement,setting,value
"O=C(O)COC[C@H]1CC[C@H](COC(=O)N(c2ccccc2)c2ccc(Cl)cc2)CC1 [ralinepag, 2-(((1r,4r)-4-(((4-chlorophenyl)(phenyl)carbamoyloxy)methyl)cyclohexyl)methoxy)acetic acid]",inhibition at 0.001 µM,"Homo sapiens, PASMC, 1 nM ralinepag alone",14%
same,inhibition at 0.01 µM,"Homo sapiens, PASMC, 10 nM ralinepag in the presence of 100 nM bosentan",21%
same,inhibition at 10 µM,"Homo sapiens, PASMC, 10 μM ralinepag alone (highest dose tested)",50%
same,inhibition at 0.1 µM,"Homo sapiens, PASMC, 96 h, drug alone at 100 nM, compared to FBS and DMSO, 4 days",28%
same,EC50,"Homo sapiens, PASMC, 96 h, ralinepag alone or + 100 nM drug, from individual fits, 9% FBS + 0.1% DMSO, 4 days",0.025 µM
same,EC50,"Homo sapiens, PASMC, ralinepag in the presence of 100 nM riociguat, individual fits",0.01 µM
same,antiproliferative response in the presence of an IP receptor antagonist,IP receptor antagonist RO-1138452 (1 μM),completely inhibited
same,maximal effect compared with treprostinil,cell proliferation assay,weaker maximal effects
same,fold lower dose of ralinepag inhibiting cell proliferation,combined with 100 nM macitentan vs ralinepag alone,10 fold
same,IP receptor dependence of the effect,cyclic AMP and cell proliferation assays in human PASMCs from PAH patients,selective IP receptor agonists
same,dose of ralinepag at which significant inhibition of cell growth occurred,in the presence of 100 nM riociguat,10 pM
same,potency enhancement,"in the presence of 100 nM sildenafil, mean fits (Table 2)",8 fold
same,antiproliferative effect compared to ralinepag alone,"in the presence of 100 nM treprostinil, entire concentration range, mean data",more effective in the presence of treprostinil
same,fold more antiproliferation effects than MRE-269,ralinepag vs MRE-269,10 fold
